The test system of data set [1] is V79. The data set can be described thus: Net accumulation of the [99mTc]Isonitrile complex was measured in 77A cell lines in the presence of Verapamil. It counts as functional, cell-based.
The subject of data set [2] is V79. Description: Verapamil index represents the ratio of net uptake in the presense of verapamil over control in 77A cell lines. In kind it is functional, cell-based.
Data set [3] in a line: Ratio of bioavailability in rat blood and rat brain. In kind it is functional, organism-based.
The nature of data set [4]: Ratio of bioavailability in rat heart and rat blood. In kind it is functional, organism-based.
The nature of data set [5]: Ratio of bioavailability in rat adrenal and rat blood. It counts as functional, organism-based.
For data set [6], the system named is Rattus norvegicus. The data set can be described thus: Biodistribution values represent the mean % id/organ for paired rats 30 min post intravenous injection complex in Spleen. It counts as ADME, organism-based. The following applies: in vivo, 0.5 h.
In data set [7] the test system is Rattus norvegicus. The data set can be described thus: Biodistribution values represent the mean % id/organ for paired rats 30 min post intravenous injection complex in Adrenal. It counts as ADME, organism-based. The following applies: in vivo, 0.5 h.
Data set [8] has as its system Rattus norvegicus. Description: Biodistribution values represent the mean % id/organ for paired rats 30 min post intravenous injection complex in Blood. It counts as ADME, organism-based. The following applies: in vivo, 0.5 h.
In data set [9] the test system is Rattus norvegicus. The data set can be described thus: Biodistribution values represent the mean % id/organ for paired rats 30 min post intravenous injection complex in Bone. It counts as ADME, organism-based, Bone element. The settings on record: in vivo, 0.5 h.
For data set [10], the system named is Rattus norvegicus. The data set can be described thus: Biodistribution values represent the mean % id/organ for paired rats 30 min post intravenous injection complex in Brain. In kind it is ADME, organism-based. The settings on record: in vivo, 0.5 h.
Data set [11] relates to Rattus norvegicus. Description: Biodistribution values represent the mean % id/organ for paired rats 30 min post intravenous injection complex in Fat. It counts as ADME, organism-based. The settings on record: in vivo, 0.5 h.
Data set [12] concerns Rattus norvegicus. Description: Biodistribution values represent the mean % id/organ for paired rats 30 min post intravenous injection complex in GI. It counts as ADME, organism-based. The settings on record: in vivo, 0.5 h.
Data set [13] relates to Rattus norvegicus. The data set can be described thus: Biodistribution values represent the mean % id/organ for paired rats 30 min post intravenous injection complex in Heart. The settings on record: in vivo, 0.5 h. In kind it is ADME, organism-based.
For data set [14], the system named is Rattus norvegicus. Description: Biodistribution values represent the mean % id/organ for paired rats 30 min post intravenous injection complex in Kidney. It counts as ADME, organism-based. The settings on record: in vivo, 0.5 h.
Data set [15] deals with Rattus norvegicus. Description: Biodistribution values represent the mean % id/organ for paired rats 30 min post intravenous injection complex in Skin. In kind it is ADME, organism-based. The settings on record: in vivo, 0.5 h.
Data set [16] deals with Rattus norvegicus. The data set can be described thus: Biodistribution values represent the mean % id/organ for paired rats 30 min post intravenous injection complex in Liver. In kind it is ADME, organism-based. The settings on record: in vivo, 0.5 h.
Data set [17] has as its system Rattus norvegicus. Description: Biodistribution values represent the mean % id/organ for paired rats 30 min post intravenous injection complex in Lungs. In kind it is ADME, organism-based, Lung. The following applies: in vivo, 0.5 h.
Data set [18] deals with Rattus norvegicus. Description: Biodistribution values represent the mean % id/organ for paired rats 30 min post intravenous injection complex in Muscles. It counts as ADME, organism-based, Muscle tissue. The following applies: in vivo, 0.5 h.

This is an account of results in ChEMBL document CHEMBL1128489, “Novel hexakis(areneisonitrile)technetium(I) complexes as radioligands targeted to the multidrug resistance P-glycoprotein” (J Med Chem, 1995).

For the substance “Hexakis[2-(3,4,5-Trimethoxyphenyl)ethaneisonitrile]technetium Complex [listing 1 of 2 here]”, the Net accumulation in [1] (Cricetulus griseus) is 101. The Verapamil index in data set [2] (Cricetulus griseus) came to 1.07. Besides, the Ratio worked out at 5 in [3], 9 in data set [4] and 54 in data set [5].
Turning to “Hexakis[4-Nitrobenzeneisonitrile]technetium Complex [listing 1 of 2 here]”, the Net accumulation in data set [1] (Cricetulus griseus) is 29.1. Moreover, the Verapamil index in [2] (Cricetulus griseus) worked out at 1.15. Also, the values for the Ratio in [3], in [4] and in data set [5] were 39, 0.3 and 0.6, respectively.
In the case of “Hexakis[3,5-Dimethoxy-alpha-tolueneisonitrile]technetium Complex”, the Net accumulation in data set [1] (Cricetulus griseus) turned out to be 315. For the same substance, in [2] (Cricetulus griseus), the Verapamil index turned out to be 2.19. Further, the Ratio in data set [3] was 28; in data set [4] it was 0.4; in data set [5] it was 3.1.
On to “Hexakis[3,4-Dimethoxy-alpha-tolueneisonitrile]technetium Complex”, for which the Net accumulation in data set [1] (Cricetulus griseus) stood at 362. Moreover, the Verapamil index in [2] (Cricetulus griseus) came to 1.53. Moreover, the Ratio was determined as 19 in data set [3], 0.6 in data set [4] and 7.9 in [5].
In the case of “Hexakis[3,4-Dimethoxybenzeneisonitrile]technetium Complex”, the Net accumulation in data set [1] (Cricetulus griseus) came to 397. Also, the Verapamil index in [2] (Cricetulus griseus) is 3.52. Moreover, the Ratio in [3] is 26; in data set [4] it was 0.7; in data set [5], 7.3.
With “Hexakis[2-(3,4-Dimethoxyphenyl)ethaneisonitrile]technetium Complex [listing 1 of 2 here]”, in [1], the Net accumulation amounted to 146. Besides, the Verapamil index in data set [2] stood at 3.3. The values for the Ratio in [3], in [4] and in data set [5] were 23, 0.4 and 4.1, respectively.
As to “Hexakis[3,4,5-Trimethoxy-alpha-tolueneisonitrile]technetium Complex”, the Net accumulation in [1] (Cricetulus griseus) worked out at 57. For the same substance, the Verapamil index in data set [2] (Cricetulus griseus) came to 0.81. For the same substance, the Ratio in data set [3] turned out to be 6.7; in data set [4] it was 5.5; in [5] it was 24.
Turning to “Hexakis[3,5-Dimethoxybenzeneisonitrile]technetium Complex [listing 1 of 2 here]”, the ID/organ in data set [6] was found to be 2.25%; in data set [7], 0%; in data set [8] it was 0.5%; in [9], 1.53%; in data set [10], 0.01%; in [11] it was 0.11%. In addition, the ID/organ is reported as 3.12% in data set [12]; 0.03% in data set [13]; 0.49% in [14]; 0.26% in data set [15]; 92.5% in [16]; 1.83% in data set [17]. In data set [18], the ID/organ was found to be 0.74%.
As for “Hexakis-(2-methoxyisobutylisonitrile)Technetium (99mTc-MIBI)”, the ID/organ is 0.6% in [6]; 0.16% in data set [7]; 0.33% in data set [8]; 11% in data set [9]; 0.05% in data set [10]; 0.73% in data set [11]. In addition, the ID/organ in [12] worked out at 30.3%; in data set [13], 2.36%; in data set [14], 6.26%; in [15] it was 3.95%; in data set [16] it was 10.8%; in data set [17] it was 0.71%. Further, the ID/organ in data set [18] amounted to 18.5%.
On to “Hexakis[2-(4-Methoxyphenyl)ethaneisonitrile]technetium Complex”, for which the Net accumulation in data set [1] (Cricetulus griseus) came to 494. In addition, the Verapamil index in [2] (Cricetulus griseus) is 3.09. Also, the Ratio in data set [3] turned out to be 26; in [4], 3.5; in [5], 13.
Turning to “Hexakis[4-Nitrobenzeneisonitrile]technetium Complex [listing 2 of 2 here]”, the ID/organ is recorded as 1.12% in data set [6]; 0.03% in data set [7]; 19.2% in data set [8]; 8.79% in data set [9]; 0.06% in [10]; 1.26% in data set [11]. In addition, the ID/organ in data set [12] is listed as 10.1%; in [13], 0.33%; in data set [14], 4.84%; in data set [15], 3.65%; in [16], 38%; in data set [17] it was 1.06%. This substance gave an ID/organ in [18] of 6.87%.
For the substance “Hexakis[2-(3,4,5-Trimethoxyphenyl)ethaneisonitrile]technetium Complex [listing 2 of 2 here]”, the ID/organ in [6] is reported as 1.5%; in data set [7], 0.12%; in data set [8] it was 0.93%; in data set [9], 5.11%; in data set [10], 0.01%; in [11], 0.19%. Besides, the ID/organ in [12] is recorded as 24.5%; in data set [13], 0.38%; in [14], 10%; in data set [15] it was 1.33%; in data set [16] it was 44.2%; in [17] it was 0.43%. Further, in [18], the ID/organ stood at 4.84%.
For the substance “Hexakis[3,5-Dimethoxybenzeneisonitrile]technetium Complex [listing 2 of 2 here]”, the Net accumulation in data set [1] (Cricetulus griseus) worked out at 15.3. Moreover, the Verapamil index in [2] (Cricetulus griseus) stood at 1.84. The Ratio was determined as 7.5 in [3], 1 in [4] and 1.7 in [5].
For the substance “Hexakis[4-Cyanobenzeneisonitrile]technetium Complex”, the ID/organ in data set [6] is 2.47%; in [7], 0.03%; in data set [8] it was 9.89%; in data set [9], 4.9%; in data set [10], 0.03%; in data set [11] it was 0.37%. The ID/organ in [12] is listed as 2.99%; in data set [13] it was 0.13%; in data set [14], 1.23%; in data set [15] it was 1.23%; in [16] it was 75.7%; in [17], 2.2%. Moreover, the ID/organ in data set [18] worked out at 3.84%.
For “Hexakis[3,4-(Methylenedioxy)benzeneisonitrile]technetium Complex”, in data set [1] (Cricetulus griseus), the Net accumulation stood at 93.9. In addition, the Verapamil index in data set [2] (Cricetulus griseus) came out at 1.87. The values for the Ratio in [3], in data set [4] and in [5] were 9.3, 0.4 and 14, respectively.
On to “Hexakis[4-Methoxy-alpha-tolueneisonitrile]technetium Complex”, for which the Net accumulation in data set [1] (Cricetulus griseus) was found to be 359. Moreover, in data set [2] (Cricetulus griseus), the Verapamil index came to 2.6. For the same substance, the figures for the Ratio in [3], in [4] and in [5] were 30, 0.3 and 2.5, respectively.
Turning to “Hexakis[2-(3,4-Dimethoxyphenyl)ethaneisonitrile]technetium Complex [listing 2 of 2 here]”, the ID/organ in data set [6] is 1.91%; in [7] it was 0.04%; in data set [8], 3%; in data set [9] it was 2.96%; in data set [10], 0.02%; in data set [11], 0.14%. Further, the ID/organ was 15.7% in data set [12]; 0.07% in data set [13]; 1.26% in data set [14]; 0.82% in [15]; 77.5% in data set [16]; 1.1% in data set [17]. In addition, in [18], the ID/organ is 1.77%.
“Hexakis[3-Acetamidobenzeneisonitrile]technetium Complex”: the ID/organ is listed as 1.5% in data set [6]; 0.02% in [7]; 0.87% in [8]; 3.48% in data set [9]; 0.01% in data set [10]; 0.03% in data set [11]. Besides, the ID/organ is given as 2.12% in data set [12]; 0.03% in data set [13]; 0.38% in data set [14]; 0.17% in data set [15]; 86.9% in data set [16]; 1.45% in [17]. The substance also came in with an ID/organ in data set [18] of 0.53%.
Consider “Hexakis[2-Methoxy-5-nitrobenzeneisonitrile]technetium Complex”, for which the ID/organ in data set [6] worked out at 1.25%; in [7], 0.04%; in [8] it was 14.1%; in [9] it was 9.58%; in data set [10], 0.04%; in data set [11], 0.55%. Further, the ID/organ in data set [12] came out at 19.4%; in [13] it was 0.35%; in data set [14] it was 2.74%; in [15], 2.88%; in data set [16], 32.5%; in data set [17], 0.51%. In data set [18], the ID/organ worked out at 6.82%.
Regarding “Hexakis[4-Acetylbenzeneisonitrile]technetium Complex [listing 1 of 2 here]”, in data set [1] (Cricetulus griseus), the Net accumulation stood at 826. The Verapamil index in data set [2] (Cricetulus griseus) was found to be 1.73. In addition, the Ratio in data set [3] was found to be 17; in data set [4], 0.6; in [5], 22.
As to “Hexakis[4-Acetylbenzeneisonitrile]technetium Complex [listing 2 of 2 here]”, the ID/organ in [6] is given as 2.28%; in [7], 0.06%; in [8], 1.13%; in data set [9], 4.27%; in [10] it was 0.01%; in [11], 0.07%. In addition, the ID/organ came to 3.15% in data set [12]; 0.03% in data set [13]; 0.66% in [14]; 0.7% in data set [15]; 92.7% in [16]; 1.73% in data set [17]. Also, in data set [18], the ID/organ was determined as 0.68%.
